We go through two compounds from patent US7470781B2, “Formulation of stabilized cationic transfection agent(s)/nucleic acid particles” (Aventis Pharma S.A., priority 1997, dated 2008).

Each structure is given as a SMILES string.

The nature of series [1]: Structure of complexes by low-angle X-ray diffraction and cryo-transmission electron microscopy. The series is classed as physicochemical. The method, then:
The cryo-transmission electron microscopy (cryo-TEM) experiments are carried out with 7 μl of prepared samples containing 0.5 mg of DNA/ml, which are placed on a carbon-coated copper grid covered with a membrane with holes. The grids are then immersed in liquid ethane so as to convert the liquid water to vitrified water. Next, this grid is installed inside a specimen holder cooled with liquid nitrogen and introduced into the microscope (Philips CM12) for visualization.
The low-angle X-ray diffraction experiments are carried out in the synchrotron (LURE) in Orsay (France) on the D43 line. The samples are prepared at 0.5 mg DNA/ml and then centrifuged. The pellets are deposited in a cell in which the two windows consist of kapton. A germanium-containing monochromator (111 reflection) allows the selection of the wavelength of 0.138 nm.
In this study, we have determined, by low-angle X-ray diffraction and by transmission electron microscopy, the structure of the cationic lipid transfectant/DNA complexes.

Series [2] can be described thus: Size (hydrodynamic diameter) of cationic lipid/DNA complexes by photon correlation spectroscopy. The series is classed as physicochemical. The note with it: component alone incubated with 1% (weight/volume) poloxalkol. The method, then:
The measurement of the hydrodynamic diameter is carried out with a Coulter N4Plus, using plastic cells (four transparent faces) filled with 800 μl of the various solutions, the measurement being carried out at […] in unimodal mode.
The plasmid (10 μg/ml) is placed in a solution containing 150 mM NaCl and various concentrations of poloxalkol. The lipofectant RPR 120535 is then added in order to obtain a charge ratio (+/−) 2.5. The size of the complexes is then measured by photon correlation spectroscopy according to the procedure described in Methods.
The plasmid (10 μg/ml) is placed in a solution containing 150 mM NaCl at various concentrations of poloxalkol. RPR 120531 is then added in order to obtain a charge ratio (+/−) 2.5. The size of the complexes is measured by photon correlation spectroscopy (Coulter N4plus).
Table V below represents the diameter, in nm, of the RPR 120535/DNA complexes, at the charge ratio of 2.75 (+/−) and containing 0.25 mg of DNA/ml in 150 mM NaCl, stabilized with various nonionic surface-active agents.

A further series relates to mice. In words: Transfection in vivo after systemic injection, luciferase activity in organs. Set-up: unit not given here. The conditions noted are these: balbc mouse, 24 hours after tail vein injection. The method, then: The in vivo transfections are carried out by injecting, into the vein of the tail of 30-day-old mice, 200 μl of a solution containing 0.2 mg DNA/ml combined with a cationic lipid vector. 24 hours after the injection, the mice are humanely killed and then various organs are recovered (lung, liver, heart, kidney, spleen). These organs are then ground in a lysis buffer with the aid of an Ultraturax. The ground products obtained are then centrifuged, and then 10 μl of the supernatant is collected in order to assay the luciferase activity.
We compared the gene transfer efficiencies after systemic injections of precipitated RPR 120535/DNA complexes, and of these same complexes stabilized by the addition of Pluronic F68®. […] On the other hand, when the particles are colloidally stabilized by the addition of F68®, the luciferase activity is increased by a factor of 10 in the lungs, and expression is observed in other tissues (liver, heart).
Identical experiments to those described above were carried out using another lipid: BGTC. Similar results were obtained, namely an improvement in gene transfer in the lungs and a measurable expression in the liver, the heart and the kidneys. […] Indeed, given that nonviral lipid vectors are used, these complexes might have been expected to be destabilized by the presence of these endogenous lipids in a large quantity. The results of in vivo transfection of BGTC/DOPE/DNA complexes in the absence or in the presence of poloxalkol are assembled in Table IV below: […]

Regarding `CC(C)CCC[C@@H](C)[C@H]1CC[C@H]2[C@@H]3CC=C4C[C@@H](OC(=O)NCCN(CCN=C(N)N)CCN=C(N)N)CC[C@]4(C)[C@H]3CC[C@]12C` [BGTC], the “periodicity of lamellar structure” value in series [1] (in the absence and in the presence of poloxalkol) was 6.5 nm. The size of complexes entry in series [1] (presence of poloxalkol) is listed as “small-sized complexes”.

On to `CCCCCCCCCCCCCCCCCCN(CCCCCCCCCCCCCCCCCC)C(=O)CNC(=O)CNCCCNCCCCNCCCN` [RPR 120535, H2N(CH2)3NH(CH2)4NH (CH2)3NHCH2COGlyN[(CH2)17CH3]2], for which, in series [2], the “particles detectable by Quasi-Elastic Diffusion of light” value is reported as “does not form particles”. Also, in the series with mice (0% F68), the “luciferase activity, Heart” value was determined as 0; the “luciferase activity, Kidneys” value is 0; the “luciferase activity, Liver” value was found to be 0; the “luciferase activity, Lungs” value amounted to 2 ± 0.9. In the series on mice (10% F68), the “luciferase activity, Heart” value is listed as 1 ± 0.4; the “luciferase activity, Kidneys” value came out at 0; the “luciferase activity, Liver” value is 2 ± 3; the “luciferase activity, Lungs” value turned out to be 14 ± 0.9.
